# Laboratory results taken from ChEMBL document CHEMBL3585294, “LAT Transport Inhibitors from Pittosporum venulosum Identified by NMR Fingerprint Analysis” (J Nat Prod, 2015).
# pIC50: −log10 of the molar value.
# Assay: Inhibition of LAT in human LNCAP cells assessed as inhibition of [3H]-L-leucine transport by liquid scintillation counting analysis
# Type: cell-based
row,Structure (SMILES),pIC50
1,C/C=C(/C)C(=O)O[C@H]1[C@@H](O)[C@@H](C)O[C@@H](OC(C)(C)[C@H]2CC=C(C)CC2)[C@@H]1OC(C)=O,4.54
2,NC1(C(=O)O)CC2CCC1C2 (stereo not given),2.39

# Other lines, results leading:
row,pIC50,Structure (SMILES)
1,4.94,CC[C@H](C)C(=O)O[C@H]1[C@@H](O)[C@@H](C)O[C@@H](OC(C)(C)[C@H]2CC=C(C)CC2)[C@@H]1OC(C)=O
2,4.40,CC[C@H](C)C(=O)O[C@@H]1[C@H](O)[C@@H](OC(C)=O)[C@H](OC(C)(C)[C@H]2CC=C(C)CC2)O[C@@H]1C
3,5.09,CC(=O)O[C@H]1[C@H](OC(C)(C)[C@H]2CC=C(C)CC2)O[C@H](C)[C@H](O)[C@@H]1OC(=O)C=C(C)C
